In ChEMBL document CHEMBL1933046, “Synthesis and antibacterial activity of a novel series of acylides active against community acquired respiratory pathogens” (2012):
In brackets after ≈: the same amount, converted by molar mass.

System: Streptococcus pneumoniae
Assay: Antibacterial activity against Streptococcus pneumoniae by NCCLS method
Type: functional

## CC[C@H]1OC(=O)[C@H](C)[C@@H](OC(=O)Cc2ccccc2[N+](=O)[O-])[C@H](C)[C@@H](O[C@@H]2O[C@H](C)C[C@H](N(C)CC3CC3)[C@H]2O)[C@](C)(OC)C[C@@H](C)C(=O)[C@H](C)[C@@H](O)[C@]1(C)O
  MIC: 1 mg/L (≈ 1.26 µM)

## CC[C@H]1OC(=O)[C@H](C)[C@@H](OC(=O)Cc2ccc(F)cc2)[C@H](C)[C@@H](O[C@@H]2O[C@H](C)C[C@H](N(C)C3CC3)[C@H]2O)[C@](C)(OC)C[C@@H](C)C(=O)[C@H](C)[C@@H](O)[C@]1(C)O
  MIC: 32 mg/L (≈ 42.6 µM)

## CC[C@H]1OC(=O)[C@H](C)[C@@H](OC(=O)Cc2ccccc2F)[C@H](C)[C@@H](O[C@@H]2O[C@H](C)C[C@H](N(C)C3CC3)[C@H]2O)[C@](C)(OC)C[C@@H](C)C(=O)[C@H](C)[C@@H](O)[C@]1(C)O
  MIC: 16 mg/L (≈ 21.3 µM)

## CC[C@H]1OC(=O)[C@H](C)[C@@H](OC(=O)Cc2ccc([N+](=O)[O-])cc2)[C@H](C)[C@@H](O[C@@H]2O[C@H](C)C[C@H](N(C)CC)[C@H]2O)[C@](C)(OC)C[C@@H](C)C(=O)[C@H](C)[C@@H](O)[C@]1(C)O
  MIC: 0.5 mg/L (≈ 0.652 µM)

## CC[C@H]1OC(=O)[C@H](C)[C@@H](OC(=O)Cc2ccc([N+](=O)[O-])cc2)[C@H](C)[C@@H](O[C@@H]2O[C@H](C)C[C@H](N(C)C3CC3)[C@H]2O)[C@](C)(OC)C[C@@H](C)C(=O)[C@H](C)[C@@H](O)[C@]1(C)O
  MIC: > 32 mg/L

## C=CCN(C)[C@H]1C[C@@H](C)O[C@@H](O[C@@H]2[C@@H](C)[C@H](OC(=O)Cc3cccc(F)c3)[C@@H](C)C(=O)O[C@H](CC)[C@@](C)(O)[C@H](O)[C@@H](C)C(=O)[C@H](C)C[C@@]2(C)OC)[C@@H]1O
  MIC: 0.125 mg/L (≈ 0.166 µM)

## CC[C@H]1OC(=O)[C@H](C)[C@@H](OC(=O)Cc2cccnc2)[C@H](C)[C@@H](O[C@@H]2O[C@H](C)C[C@H](N(C)CC)[C@H]2O)[C@](C)(OC)C[C@@H](C)C(=O)[C@H](C)[C@@H](O)[C@]1(C)O
  MIC: 0.5 mg/L (≈ 0.692 µM)

## CC[C@H]1OC(=O)[C@H](C)[C@@H](OC(=O)Cc2ccccc2F)[C@H](C)[C@@H](O[C@@H]2O[C@H](C)C[C@H](N(C)Cc3ccccc3)[C@H]2O)[C@](C)(OC)C[C@@H](C)C(=O)[C@H](C)[C@@H](O)[C@]1(C)O
  MIC: 0.5 mg/L (≈ 0.623 µM)

## CC[C@H]1OC(=O)[C@H](C)[C@@H](OC(=O)Cc2ccccn2)[C@H](C)[C@@H](O[C@@H]2O[C@H](C)C[C@H](N(C)CC3CC3)[C@H]2O)[C@](C)(OC)C[C@@H](C)C(=O)[C@H](C)[C@@H](O)[C@]1(C)O
  MIC: > 16 mg/L

## C#CCN(C)[C@H]1C[C@@H](C)O[C@@H](O[C@@H]2[C@@H](C)[C@H](OC(=O)Cc3cccc(F)c3)[C@@H](C)C(=O)O[C@H](CC)[C@@](C)(O)[C@H](O)[C@@H](C)C(=O)[C@H](C)C[C@@]2(C)OC)[C@@H]1O
  MIC: 2 mg/L (≈ 2.67 µM)

## CC[C@H]1OC(=O)[C@H](C)[C@@H](OC(=O)Cc2cccc([N+](=O)[O-])c2)[C@H](C)[C@@H](O[C@@H]2O[C@H](C)C[C@H](N(C)C3CC3)[C@H]2O)[C@](C)(OC)C[C@@H](C)C(=O)[C@H](C)[C@@H](O)[C@]1(C)O
  MIC: 16 mg/L (≈ 20.5 µM)

## CC[C@H]1OC(=O)[C@H](C)[C@@H](OC(=O)Cc2ccncc2)[C@H](C)[C@@H](O[C@@H]2O[C@H](C)C[C@H](N(C)CC3CC3)[C@H]2O)[C@](C)(OC)C[C@@H](C)C(=O)[C@H](C)[C@@H](O)[C@]1(C)O
  MIC: 32 mg/L (≈ 42.7 µM)

## C#CCN(C)[C@H]1C[C@@H](C)O[C@@H](O[C@@H]2[C@@H](C)[C@H](OC(=O)Cc3cccc([N+](=O)[O-])c3)[C@@H](C)C(=O)O[C@H](CC)[C@@](C)(O)[C@H](O)[C@@H](C)C(=O)[C@H](C)C[C@@]2(C)OC)[C@@H]1O
  MIC: 1 mg/L (≈ 1.29 µM)

## CC[C@H]1OC(=O)[C@H](C)[C@@H](OC(=O)Cc2cccc(F)c2)[C@H](C)[C@@H](O[C@@H]2O[C@H](C)C[C@H](N(C)Cc3ccc(F)cc3)[C@H]2O)[C@](C)(OC)C[C@@H](C)C(=O)[C@H](C)[C@@H](O)[C@]1(C)O
  MIC: 2 mg/L (≈ 2.44 µM)

## CC[C@H]1OC(=O)[C@H](C)[C@@H](OC(=O)Cc2cccc(F)c2)[C@H](C)[C@@H](O[C@@H]2O[C@H](C)C[C@H](N(C)Cc3ccccc3)[C@H]2O)[C@](C)(OC)C[C@@H](C)C(=O)[C@H](C)[C@@H](O)[C@]1(C)O
  MIC: 1 mg/L (≈ 1.25 µM)

## C=CCN(C)[C@H]1C[C@@H](C)O[C@@H](O[C@@H]2[C@@H](C)[C@H](OC(=O)Cc3ccncc3)[C@@H](C)C(=O)O[C@H](CC)[C@@](C)(O)[C@H](O)[C@@H](C)C(=O)[C@H](C)C[C@@]2(C)OC)[C@@H]1O
  MIC: 0.5 mg/L (≈ 0.68 µM)

## C=CCN(C)[C@H]1C[C@@H](C)O[C@@H](O[C@@H]2[C@@H](C)[C@H](OC(=O)Cc3ccccc3F)[C@@H](C)C(=O)O[C@H](CC)[C@@](C)(O)[C@H](O)[C@@H](C)C(=O)[C@H](C)C[C@@]2(C)OC)[C@@H]1O
  MIC: 0.25 mg/L (≈ 0.332 µM)

## CC[C@H]1OC(=O)[C@H](C)[C@@H](OC(=O)Cc2cccc([N+](=O)[O-])c2)[C@H](C)[C@@H](O[C@@H]2O[C@H](C)C[C@H](N(C)CC)[C@H]2O)[C@](C)(OC)C[C@@H](C)C(=O)[C@H](C)[C@@H](O)[C@]1(C)O
  MIC: 0.25 mg/L (≈ 0.326 µM)

## CC[C@H]1OC(=O)[C@H](C)[C@@H](OC(=O)Cc2ccccn2)[C@H](C)[C@@H](O[C@@H]2O[C@H](C)C[C@H](N(C)CC)[C@H]2O)[C@](C)(OC)C[C@@H](C)C(=O)[C@H](C)[C@@H](O)[C@]1(C)O
  MIC: 0.25 mg/L (≈ 0.346 µM)

## C=CCN(C)[C@H]1C[C@@H](C)O[C@@H](O[C@@H]2[C@@H](C)[C@H](OC(=O)Cc3cccc([N+](=O)[O-])c3)[C@@H](C)C(=O)O[C@H](CC)[C@@](C)(O)[C@H](O)[C@@H](C)C(=O)[C@H](C)C[C@@]2(C)OC)[C@@H]1O
  MIC: 0.06 mg/L (≈ 0.077 µM)

## CC[C@H]1OC(=O)[C@H](C)[C@@H](OC(=O)Cc2ccccn2)[C@H](C)[C@@H](O[C@@H]2O[C@H](C)C[C@H](N(C)C3CC3)[C@H]2O)[C@](C)(OC)C[C@@H](C)C(=O)[C@H](C)[C@@H](O)[C@]1(C)O
  MIC: > 32 mg/L

## C=CCN(C)[C@H]1C[C@@H](C)O[C@@H](O[C@@H]2[C@@H](C)[C@H](OC(=O)Cc3cccnc3)[C@@H](C)C(=O)O[C@H](CC)[C@@](C)(O)[C@H](O)[C@@H](C)C(=O)[C@H](C)C[C@@]2(C)OC)[C@@H]1O
  MIC: 0.25 mg/L (≈ 0.34 µM)

## CC[C@H]1OC(=O)[C@H](C)[C@@H](OC(=O)Cc2ccc(F)cc2)[C@H](C)[C@@H](O[C@@H]2O[C@H](C)C[C@H](N(C)CC)[C@H]2O)[C@](C)(OC)C[C@@H](C)C(=O)[C@H](C)[C@@H](O)[C@]1(C)O
  MIC: 0.5 mg/L (≈ 0.676 µM)

## C#CCN(C)[C@H]1C[C@@H](C)O[C@@H](O[C@@H]2[C@@H](C)[C@H](OC(=O)Cc3ccccn3)[C@@H](C)C(=O)O[C@H](CC)[C@@](C)(O)[C@H](O)[C@@H](C)C(=O)[C@H](C)C[C@@]2(C)OC)[C@@H]1O
  MIC: 4 mg/L (≈ 5.46 µM)

## CC[C@H]1OC(=O)[C@H](C)[C@@H](OC(=O)Cc2ccc(F)cc2)[C@H](C)[C@@H](O[C@@H]2O[C@H](C)C[C@H](N(C)Cc3ccccc3)[C@H]2O)[C@](C)(OC)C[C@@H](C)C(=O)[C@H](C)[C@@H](O)[C@]1(C)O
  MIC: 1 mg/L (≈ 1.25 µM)

## C=CCN(C)[C@H]1C[C@@H](C)O[C@@H](O[C@@H]2[C@@H](C)[C@H](OC(=O)Cc3ccccc3[N+](=O)[O-])[C@@H](C)C(=O)O[C@H](CC)[C@@](C)(O)[C@H](O)[C@@H](C)C(=O)[C@H](C)C[C@@]2(C)OC)[C@@H]1O
  MIC: 0.25 mg/L (≈ 0.321 µM)

## C=CCN(C)[C@H]1C[C@@H](C)O[C@@H](O[C@@H]2[C@@H](C)[C@H](OC(=O)Cc3ccc(F)cc3)[C@@H](C)C(=O)O[C@H](CC)[C@@](C)(O)[C@H](O)[C@@H](C)C(=O)[C@H](C)C[C@@]2(C)OC)[C@@H]1O
  MIC: 0.5 mg/L (≈ 0.665 µM)

## CC[C@H]1OC(=O)[C@H](C)[C@@H](OC(=O)Cc2cccc(F)c2)[C@H](C)[C@@H](O[C@@H]2O[C@H](C)C[C@H](N(C)CC)[C@H]2O)[C@](C)(OC)C[C@@H](C)C(=O)[C@H](C)[C@@H](O)[C@]1(C)O
  MIC: 0.125 mg/L (≈ 0.169 µM)

## CC[C@H]1OC(=O)[C@H](C)[C@@H](OC(=O)Cc2cccc(F)c2)[C@H](C)[C@@H](O[C@@H]2O[C@H](C)C[C@H](N(C)CC3CC3)[C@H]2O)[C@](C)(OC)C[C@@H](C)C(=O)[C@H](C)[C@@H](O)[C@]1(C)O
  MIC: 8 mg/L (≈ 10.4 µM)

## C#CCN(C)[C@H]1C[C@@H](C)O[C@@H](O[C@@H]2[C@@H](C)[C@H](OC(=O)Cc3ccccc3[N+](=O)[O-])[C@@H](C)C(=O)O[C@H](CC)[C@@](C)(O)[C@H](O)[C@@H](C)C(=O)[C@H](C)C[C@@]2(C)OC)[C@@H]1O
  MIC: 2 mg/L (≈ 2.57 µM)

## CC[C@H]1OC(=O)[C@H](C)[C@@H](OC(=O)Cc2ccncc2)[C@H](C)[C@@H](O[C@@H]2O[C@H](C)C[C@H](N(C)C3CC3)[C@H]2O)[C@](C)(OC)C[C@@H](C)C(=O)[C@H](C)[C@@H](O)[C@]1(C)O
  MIC: > 32 mg/L

## CC[C@H]1OC(=O)[C@H](C)[C@@H](OC(=O)Cc2cccnc2)[C@H](C)[C@@H](O[C@@H]2O[C@H](C)C[C@H](N(C)Cc3ccccc3)[C@H]2O)[C@](C)(OC)C[C@@H](C)C(=O)[C@H](C)[C@@H](O)[C@]1(C)O
  MIC: 0.25 mg/L (≈ 0.318 µM)

## C#CCN(C)[C@H]1C[C@@H](C)O[C@@H](O[C@@H]2[C@@H](C)[C@H](OC(=O)Cc3cccnc3)[C@@H](C)C(=O)O[C@H](CC)[C@@](C)(O)[C@H](O)[C@@H](C)C(=O)[C@H](C)C[C@@]2(C)OC)[C@@H]1O
  MIC: 2 mg/L (≈ 2.73 µM)

## C#CCN(C)[C@H]1C[C@@H](C)O[C@@H](O[C@@H]2[C@@H](C)[C@H](OC(=O)Cc3ccccc3F)[C@@H](C)C(=O)O[C@H](CC)[C@@](C)(O)[C@H](O)[C@@H](C)C(=O)[C@H](C)C[C@@]2(C)OC)[C@@H]1O
  MIC: 0.5 mg/L (≈ 0.667 µM)

## CC[C@H]1OC(=O)[C@H](C)[C@@H](OC(=O)Cc2ccc([N+](=O)[O-])cc2)[C@H](C)[C@@H](O[C@@H]2O[C@H](C)C[C@H](N(C)CC3CC3)[C@H]2O)[C@](C)(OC)C[C@@H](C)C(=O)[C@H](C)[C@@H](O)[C@]1(C)O
  MIC: 1 mg/L (≈ 1.26 µM)

## CC[C@H]1OC(=O)[C@H](C)[C@@H](OC(=O)Cc2cccc(F)c2)[C@H](C)[C@@H](O[C@@H]2O[C@H](C)C[C@H](N(C)C3CC3)[C@H]2O)[C@](C)(OC)C[C@@H](C)C(=O)[C@H](C)[C@@H](O)[C@]1(C)O
  MIC: > 16 mg/L

## CC[C@H]1OC(=O)[C@H](C)[C@@H](OC(=O)Cc2ccccc2F)[C@H](C)[C@@H](O[C@@H]2O[C@H](C)C[C@H](N(C)CC)[C@H]2O)[C@](C)(OC)C[C@@H](C)C(=O)[C@H](C)[C@@H](O)[C@]1(C)O
  MIC: 0.25 mg/L (≈ 0.338 µM)

## C=CCN(C)[C@H]1C[C@@H](C)O[C@@H](O[C@@H]2[C@@H](C)[C@H](OC(=O)Cc3ccccn3)[C@@H](C)C(=O)O[C@H](CC)[C@@](C)(O)[C@H](O)[C@@H](C)C(=O)[C@H](C)C[C@@]2(C)OC)[C@@H]1O
  MIC: 0.25 mg/L (≈ 0.34 µM)
